# Laboratory results as given in patent publication US10385065B2, “Antibacterial compounds” (priority 2014, dated 2019).
# Read-outs that look alike come from different tables or passages of the source.
# Experiments:
# Type in all cases: cell-based
# [1] = test system: Escherichia coli ATCC 25922; assay: MIC, broth microdilution, E. coli ATCC 25922; conditions: ATCC25922, Table 1, wild type strain
# [2] = test system: Enterococcus faecium ATCC 19434; assay: MIC, E. faecium ATCC 19434; conditions: ATCC19434, Table 2
# [3] = test system: human hepatic cell line (HepG2 ATCC HB-8065); assay: Human cell viability assay (CellTiter-Glo), HepG2; conditions: HepG2, 24 h incubation, tested over 1-128 μg/mL, read-out: IC50 values against HepG2
# Experimental: Compounds are assessed for potential non-specific cytotoxic effects against a human hepatic cell line (HepG2 ATCC HB-8065). HepG2 cells are seeded at 20,000 cells/well in 96-well microtitre plates in minimal essential medium (MEM) supplemented with a final concentration of 10% FBS and 1 mM sodium pyruvate. After 24 h compound dilutions are prepared in Dulbecco's minimum essential media (DMEM) supplemented with final concentrations of 0.001% FBS, 0.3% bovine albumin and 0.02% HEPES and added to cells. Compounds are tested in two-fold serial dilutions over a final concentration range of 1-128 μg/mL in a final DMSO concentration of 1% vol/vol. Chlorpromazine is used as a positive control. Cells are incubated with compound at 37° C. and 5% CO2 for a further 24 h, after which time the CellTiter-Glo reagent (Promega) is added. Luminescence is measured on a BMG Omega plate reader. Data are analysed using GraphPad Prism software to determine the concentration of compound that inhibits cell viability by fifty percent (IC50).
# [4] = test system: Staphylococcus aureus ATCC 29213; assay: MIC, broth microdilution, S. aureus ATCC 29213
# [5] = test system: Haemophilus influenzae ATCC 49247; assay: MIC, H. influenzae ATCC 49247; conditions: ATCC49247, Table 4
# [6] = ATCC29213, Table 1, wild type strain, read-out: MIC S. aureus ATCC 29213
# [7] = ATCC 29213 / MSSA, Table 2, read-out: MIC S. aureus (MSSA) ATCC 29213 CLSI control strain
MIC [1],MIC [2],IC50 [3],"MIC [4, 6]","MIC [4, 7]",MIC [5],SMILES
1 to 10 µg/mL,10 to 100 µg/mL,> 100 µg/mL,1 to 10 µg/mL,1 to 10 µg/mL,< 1 µg/mL,"Nc1ccc(-c2cc3c(cc2F)c2ocnc2c(=O)n3C2CC2)cc1F [Compound 71, 7-(4-amino-3-fluoro-phenyl)-5-cyclopropyl-8-fluoro-oxazolo[4,5-c]quinolin-4-one]"
1 to 10 µg/mL,10 to 100 µg/mL,10 to 100 µg/mL,1 to 10 µg/mL,1 to 10 µg/mL,1 to 10 µg/mL,"Cc1nc2c(=O)n(C3CC3)c3cc(N4CCC(N)C4)c(F)cc3c2o1 (stereo not shown) [Compound 56, 7-(3-aminopyrrolidin-1-yl)-5-cyclopropyl-8-fluoro-2-methyl-oxazolo[4,5-c]quinolin-4-one]"
,,> 100 µg/mL,,,,"O=C(O)c1cn(C2CC2)c2cc(N3CCNCC3)c(F)cc2c1=O [Ciprofloxacin, reference compound]"
> 100 µg/mL,> 100 µg/mL,> 100 µg/mL,1 to 10 µg/mL,1 to 10 µg/mL,10 to 100 µg/mL,"Cc1nc2c(=O)n(C3CC3)c3c(C)c(-c4cnn(C5CN(C(=O)OC(C)(C)C)C5)c4)ccc3c2o1 [Compound 11, tert-butyl 3-[4-(5-cyclopropyl-2,6-dimethyl-4-oxo-oxazolo[4,5-c]quinolin-7-yl)pyrazol-1-yl]azetidine-1-carboxylate]"
1 to 10 µg/mL,> 100 µg/mL,> 100 µg/mL,< 1 µg/mL,< 1 µg/mL,1 to 10 µg/mL,"Cc1c(-c2ccc(N)cc2)ccc2c3ocnc3c(=O)n(C3CC3)c12 [Compound 40, 7-(4-aminophenyl)-5-cyclopropyl-6-methyl-oxazolo[4,5-c]quinolin-4-one]"
> 100 µg/mL,> 100 µg/mL,10 to 100 µg/mL,1 to 10 µg/mL,1 to 10 µg/mL,10 to 100 µg/mL,"Cc1c(-c2cnc(N(C)C)nc2)ccc2c3ocnc3c(=O)n(C3CC3)c12 [Compound 41, 5-cyclopropyl-7-[2-(dimethylamino)pyrimidin-5-yl]-6-methyl-oxazolo[4,5-c]quinolin-4-one]"
10 to 100 µg/mL,> 100 µg/mL,10 to 100 µg/mL,1 to 10 µg/mL,1 to 10 µg/mL,1 to 10 µg/mL,"Cc1c(-c2ccc(NCc3ccccc3)nc2)ccc2c3ocnc3c(=O)n(C3CC3)c12 [Compound 48, 7-[6-(benzylamino)pyridin-3-yl]-5-cyclopropyl-6-methyl-oxazolo[4,5-c]quinolin-4-one]"
10 to 100 µg/mL,> 100 µg/mL,> 100 µg/mL,1 to 10 µg/mL,1 to 10 µg/mL,1 to 10 µg/mL,"Cc1nc2c(=O)n(C3CC3)c3cc(N4CCC(C)(N)CC4)c(F)cc3c2o1 [Compound 55, 7-(4-amino-4-methylpiperidin-1-yl)-5-cyclopropyl-8-fluoro-2-methyl-oxazolo[4,5-c]quinolin-4-one]"
> 100 µg/mL,> 100 µg/mL,,10 to 100 µg/mL,10 to 100 µg/mL,> 100 µg/mL,"CC(=O)c1ccc(-c2ccc3c4ocnc4c(=O)n(C4CC4)c3c2C)nc1 [Compound 42, 7-(5-acetylpyridin-2-yl)-5-cyclopropyl-6-methyl-oxazolo[4,5-c]quinolin-4-one]"
> 100 µg/mL,> 100 µg/mL,,10 to 100 µg/mL,10 to 100 µg/mL,10 to 100 µg/mL,"CCn1c(=O)c2ncoc2c2cc(F)c(-c3ccc(N)nc3)c(C)c21 [Compound 106, 7-(6-amino-3-pyridyl)-5-ethyl-8-fluoro-6-methyl-oxazolo[4,5-c]quinolin-4-one]"
10 to 100 µg/mL,> 100 µg/mL,,1 to 10 µg/mL,1 to 10 µg/mL,10 to 100 µg/mL,"Cc1c(-c2cnoc2)ccc2c3ocnc3c(=O)n(C3CC3)c12 [Compound 43, 5-cyclopropyl-6-methyl-7-(1,2-oxazol-4-yl)-oxazolo[4,5-c]quinolin-4-one]"
> 100 µg/mL,> 100 µg/mL,,10 to 100 µg/mL,10 to 100 µg/mL,> 100 µg/mL,"CC(=O)c1cc(F)c(-c2cc3c(cc2F)c2oc(C)nc2c(=O)n3C2CC2)cc1F [Compound 77, 7-(4-acetyl-2,5-difluoro-phenyl)-5-cyclopropyl-8-fluoro-2-methyl-oxazolo[4,5-c]quinolin-4-one]"
> 100 µg/mL,> 100 µg/mL,,10 to 100 µg/mL,10 to 100 µg/mL,> 100 µg/mL,"Nc1ccc(-c2cc3c(cc2F)c2ocnc2c(=O)n3C2CC2)cn1 [Compound 70, 7-(6-amino-3-pyridyl)-5-cyclopropyl-8-fluoro-oxazolo[4,5-c]quinolin-4-one]"
1 to 10 µg/mL,10 to 100 µg/mL,,< 1 µg/mL,< 1 µg/mL,1 to 10 µg/mL,"COc1c(N2CCC(N)C2)c(F)cc2c3ocnc3c(=O)n(C3CC3)c12 (stereo not shown) [Compound 97, 7-(3-aminopyrrolidin-1-yl)-5-cyclopropyl-8-fluoro-6-methoxyoxazolo[4,5-c]quinolin-4-one]"
> 100 µg/mL,> 100 µg/mL,,< 1 µg/mL,< 1 µg/mL,1 to 10 µg/mL,"Cc1nc2c(=O)n(C3CC3)c3cc(-c4ccc5[nH]ncc5c4)c(F)cc3c2o1 [Compound 73, 5-cyclopropyl-8-fluoro-7-(1H-indazol-5-yl)-2-methyl-oxazolo[4,5-c]quinolin-4-one]"
10 to 100 µg/mL,> 100 µg/mL,,1 to 10 µg/mL,1 to 10 µg/mL,1 to 10 µg/mL,"Nc1ncc(-c2cc3c(cc2F)c2ocnc2c(=O)n3C2CC2)cn1 [Compound 62, 7-(2-aminopyrimidin-5-yl)-5-cyclopropyl-8-fluoro-oxazolo[4,5-c]quinolin-4-one]"
> 100 µg/mL,> 100 µg/mL,,> 100 µg/mL,> 100 µg/mL,10 to 100 µg/mL,"Cc1nc2c(=O)n(C3CC3)c3cc(-c4cc(F)c(C(N)=O)cc4F)c(F)cc3c2o1 [Compound 78, 4-(5-cyclopropyl-8-fluoro-2-methyl-4-oxo-oxazolo[4,5-c]quinolin-7-yl)-2,5-difluoro-benzamide]"
10 to 100 µg/mL,10 to 100 µg/mL,,< 1 µg/mL,1 to 10 µg/mL,10 to 100 µg/mL,"Cc1nc2c(=O)n(C3CC3)c3c(C)c(-c4cnc(N)nc4)ccc3c2o1 [Compound 16, 7-(2-aminopyrimidin-5-yl)-5-cyclopropyl-2,6-dimethyl-oxazolo[4,5-c]quinolin-4-one]"
> 100 µg/mL,> 100 µg/mL,,10 to 100 µg/mL,10 to 100 µg/mL,> 100 µg/mL,"Cc1c(-c2cc(F)c(C(=O)O)cc2F)ccc2c3ocnc3c(=O)n(C3CC3)c12 [Compound 47, 4-{5-cyclopropyl-6-methyl-4-oxo-oxazolo[4,5-c]quinolin-7-yl}-2,5-difluorobenzoic acid]"
> 100 µg/mL,10 to 100 µg/mL,,1 to 10 µg/mL,1 to 10 µg/mL,10 to 100 µg/mL,"Cc1c(-c2ccccc2)ccc2c3ocnc3c(=O)n(C3CC3)c12 [Compound 7, 5-cyclopropyl-6-methyl-7-phenyl-oxazolo[4,5-c]quinolin-4-one]"
> 100 µg/mL,> 100 µg/mL,,> 100 µg/mL,> 100 µg/mL,> 100 µg/mL,"CCOC(=O)c1ccc(-c2cc3c(cc2F)c2ocnc2c(=O)n3C2CC2)cc1 [Compound 61, ethyl 4-(5-cyclopropyl-8-fluoro-4-oxo-oxazolo[4,5-c]quinolin-7-yl)benzoate]"
10 to 100 µg/mL,> 100 µg/mL,,10 to 100 µg/mL,10 to 100 µg/mL,1 to 10 µg/mL,"Cc1nc2c(=O)n(C3CC3)c3cc(N4CCC(O)C4)c(F)cc3c2o1 (stereo not shown) [Compound 53, 5-cyclopropyl-8-fluoro-7-(3-hydroxypyrrolidin-1-yl)-2-methyl-oxazolo[4,5-c]quinolin-4-one]"
> 100 µg/mL,> 100 µg/mL,,10 to 100 µg/mL,10 to 100 µg/mL,1 to 10 µg/mL,"Cc1nc2c(=O)n(C3CC3)c3cc(-c4ccc(C=O)cc4)c(F)cc3c2o1 [Compound 72, 4-(5-cyclopropyl-8-fluoro-2-methyl-4-oxo-oxazolo[4,5-c]quinolin-7-yl)benzaldehyde]"
> 100 µg/mL,> 100 µg/mL,,10 to 100 µg/mL,10 to 100 µg/mL,10 to 100 µg/mL,"Cc1c(-c2ccc(O)cn2)ccc2c3ocnc3c(=O)n(C3CC3)c12 [Compound 45, 5-cyclopropyl-7-(5-hydroxypyridin-2-yl)-6-methyl-oxazolo[4,5-c]quinolin-4-one]"
10 to 100 µg/mL,> 100 µg/mL,,10 to 100 µg/mL,10 to 100 µg/mL,1 to 10 µg/mL,"Cc1nc2c(=O)n(C3CC3)c3cc(-c4ccncc4F)c(F)cc3c2o1 [Compound 74, 5-cyclopropyl-8-fluoro-7-(3-fluoro-4-pyridyl)-2-methyl-oxazolo[4,5-c]quinolin-4-one]"
> 100 µg/mL,> 100 µg/mL,,1 to 10 µg/mL,1 to 10 µg/mL,1 to 10 µg/mL,"Cc1c(-c2cc(F)c(N)cc2F)ccc2c3oc(=O)[nH]c3c(=O)n(C3CC3)c12 [Compound 3, 7-(4-amino-2,5-difluoro-phenyl)-5-cyclopropyl-6-methyl-3H-oxazolo[4,5-c]quinoline-2,4-dione]"
